From patent publication US20230312564A1, “AROMATIC RING-LACTAM COMPOUND, PREPARATION METHOD THEREFOR AND USE THEREOF” (SHANGHAI RINGENE BIOPHARMA CO., LTD., priority 2020, published 2023)

Key:
[1] = Liver microsomal metabolic stability, mouse; format: in vitro ADME; conditions: liver microsomes, 0.5 mg/mL microsomes, 1 μM compound, NADPH, read-out: Liver microsomal stability T1/2
Experimental: (§1) The reaction was stopped with tinidazole-containing acetonitrile at 0 min, 5 min, 10 min and 30 min, respectively. After vortexing for 10 min and centrifuging at 15,000 rmp for 10 min, 50 μL of the supernatant was injected into a 96-well plate. The metabolic stability of the compound was calculated by determining the relative reduction of the drug, calculated as half-life T1/2.

CYP2D6 = target: T1, CYP2D6 (Homo sapiens, UniProt P10635); test: Direct inhibition test (DI test) in human liver microsomes, CYP2D6; format: in vitro ADME
T1 construct: A system containing 100 μL of human liver microsomes; from tissue; host or cells: human liver microsomes
Experimental: (§2) (2) Direct inhibition test (DI test): A system containing 100 μL of human liver microsomes (final concentration of 0.2 mg/mL) was subjected to a direct inhibition incubation, and the system contained NADPH (final concentration of 1 mM), 10 μM compound, positive inhibitor cocktail (10 μM ketoconazole, 10 μM quinidine, 100 μM sulfaphenazole, 10 μM α-naphthoflavone, 1,000 μM tranylcypromine), negative control (BPS of 0.1% DMSO), and mixed probe substrates (10 μM midazolam, 100 μM testosterone, 10 μM dextromethorphan, […], 100 μM phenacetin, 100 μM mephenytoin). After 20 minutes of incubation, the reaction was stopped. The relative activity of the enzyme was calculated by measuring the relative production of metabolites.

[2] = Liver microsomal metabolic stability, rat; format: in vitro ADME; conditions: liver microsomes, 0.5 mg/mL microsomes, 1 μM compound, NADPH, read-out: Liver microsomal stability T1/2
Experimental: as §1

[3] = Liver microsomal stability, comparisons in words across species; format: in vitro ADME; conditions: different species; versus the comparative compounds
Experimental: as §1

CYP2C19 = target: T2, CYP2C19 (Homo sapiens, UniProt P33261); test: Direct inhibition test (DI test) in human liver microsomes, CYP2C19; format: in vitro ADME
T2 construct: A system containing 100 μL of human liver microsomes; from tissue; host or cells: human liver microsomes
Experimental: as §2

ERK1/2 kinase = system: T3, ERK1/2 kinase; test: ERK1/2 kinase (Carna) inhibitory activity, Caliper mobility shift; format: biochemical
T3 construct: fused on or other part: Carna's ERK products carry a GST tag by vendor knowledge
Summary of the method: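 Compounds tested from 10 μM top concentration, 3-fold dilutions to 10 points, in duplicate, in 1× kinase buffer; Caliper mobility-shift readout.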

CYP1A2 = target: T4, CYP1A2 (Homo sapiens, UniProt P05177); test: Direct inhibition test (DI test) in human liver microsomes, CYP1A2
T4 sequence (P05177 1-516): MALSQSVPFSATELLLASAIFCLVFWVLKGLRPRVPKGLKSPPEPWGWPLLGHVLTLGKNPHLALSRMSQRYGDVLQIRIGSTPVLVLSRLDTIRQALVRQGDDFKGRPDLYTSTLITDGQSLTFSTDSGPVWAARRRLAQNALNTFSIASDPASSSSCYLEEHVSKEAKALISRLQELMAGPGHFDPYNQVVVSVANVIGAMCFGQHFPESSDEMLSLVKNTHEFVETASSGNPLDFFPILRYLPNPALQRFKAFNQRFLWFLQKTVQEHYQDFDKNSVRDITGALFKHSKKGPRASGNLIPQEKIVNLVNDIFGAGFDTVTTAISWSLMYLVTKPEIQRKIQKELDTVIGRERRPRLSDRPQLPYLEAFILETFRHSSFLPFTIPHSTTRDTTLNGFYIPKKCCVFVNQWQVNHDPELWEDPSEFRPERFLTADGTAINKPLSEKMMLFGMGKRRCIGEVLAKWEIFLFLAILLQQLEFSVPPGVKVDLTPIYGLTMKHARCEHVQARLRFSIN
Experimental: as §2

CYP3A4 = target: T5, CYP3A4 (Homo sapiens, UniProt P08684); test: Direct inhibition test (DI test) in human liver microsomes, CYP3A4; format: in vitro ADME
T5 construct: A system containing 100 μL of human liver microsomes; from tissue; host or cells: human liver microsomes
Experimental: as §2

[4] = Liver microsomal metabolic stability, human; format: in vitro ADME; conditions: liver microsomes, 0.5 mg/mL microsomes, 1 μM compound, NADPH, read-out: Liver microsomal stability T1/2
Experimental: as §1

[5] = In-vivo pharmacokinetic parameters in mice; parameters: species or system Balb-c mice
Summary of the method: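 Male SD rats or Balb-c mice were dosed intravenously at 1 mg/kg or orally at 5 mg/kg. Jugular-vein plasma was sampled up to 24 h and analysed by LC-MS/MS. Non-compartmental analysis gave AUC, MRT, Cmax, Tmax, T1/2, Vd and oral bioavailability (F).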

[6] = male, Balb-c, mouse, plasma, IV, 1 mg/kg
[7] = male, Balb-c, mouse, plasma, PO, 5 mg/kg

T2 sequence (P33261 whole entry): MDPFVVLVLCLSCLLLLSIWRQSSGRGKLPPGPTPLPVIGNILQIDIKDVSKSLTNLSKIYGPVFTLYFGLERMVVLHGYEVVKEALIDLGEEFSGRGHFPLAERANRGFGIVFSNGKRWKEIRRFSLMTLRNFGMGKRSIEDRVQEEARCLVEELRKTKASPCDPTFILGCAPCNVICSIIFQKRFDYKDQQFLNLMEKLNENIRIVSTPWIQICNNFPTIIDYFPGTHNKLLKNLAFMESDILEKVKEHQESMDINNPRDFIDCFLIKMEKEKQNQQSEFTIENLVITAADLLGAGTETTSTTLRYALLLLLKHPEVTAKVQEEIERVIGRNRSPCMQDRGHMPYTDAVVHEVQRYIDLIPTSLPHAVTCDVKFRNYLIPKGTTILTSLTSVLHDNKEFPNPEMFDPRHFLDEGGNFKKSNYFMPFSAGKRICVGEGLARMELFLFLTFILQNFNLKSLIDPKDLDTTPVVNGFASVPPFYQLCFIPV
T1 sequence (P10635 whole entry): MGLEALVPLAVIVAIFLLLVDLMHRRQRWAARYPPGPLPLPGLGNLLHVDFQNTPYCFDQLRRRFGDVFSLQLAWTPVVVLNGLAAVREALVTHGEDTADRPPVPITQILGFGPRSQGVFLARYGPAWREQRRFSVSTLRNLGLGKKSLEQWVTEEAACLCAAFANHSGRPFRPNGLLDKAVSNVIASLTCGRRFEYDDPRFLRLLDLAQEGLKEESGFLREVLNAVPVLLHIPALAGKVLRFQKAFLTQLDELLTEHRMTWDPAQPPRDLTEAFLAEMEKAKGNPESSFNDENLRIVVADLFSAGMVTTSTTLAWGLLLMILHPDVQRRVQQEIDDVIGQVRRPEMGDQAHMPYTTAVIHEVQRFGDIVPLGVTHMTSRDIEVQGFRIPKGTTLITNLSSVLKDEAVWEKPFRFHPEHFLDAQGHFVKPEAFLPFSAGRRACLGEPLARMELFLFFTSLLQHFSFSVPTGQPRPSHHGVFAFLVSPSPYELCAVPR
T5 sequence (P08684 whole entry): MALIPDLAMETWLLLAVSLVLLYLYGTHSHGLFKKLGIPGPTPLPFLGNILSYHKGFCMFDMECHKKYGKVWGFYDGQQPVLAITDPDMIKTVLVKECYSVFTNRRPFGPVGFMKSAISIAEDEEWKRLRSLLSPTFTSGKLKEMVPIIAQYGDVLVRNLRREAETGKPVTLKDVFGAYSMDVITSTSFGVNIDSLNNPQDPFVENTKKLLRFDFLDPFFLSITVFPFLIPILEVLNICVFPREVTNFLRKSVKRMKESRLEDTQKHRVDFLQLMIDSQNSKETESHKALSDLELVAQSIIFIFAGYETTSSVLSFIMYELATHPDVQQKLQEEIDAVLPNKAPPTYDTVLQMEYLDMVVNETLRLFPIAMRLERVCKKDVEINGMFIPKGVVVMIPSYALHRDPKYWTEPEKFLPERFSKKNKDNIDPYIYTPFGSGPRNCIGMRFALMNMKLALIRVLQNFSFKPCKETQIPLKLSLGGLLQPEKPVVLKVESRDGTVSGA

Structure (SMILES): COc1cc(F)cc([C@@H](CO)NC(=O)[C@@H](C)N2Cc3ccc(-c4nc(NC5CCOCC5)ncc4F)c(F)c3C2=O)c1 [Embodiment 40]
- half-life at 1 μM [1]: 13 min
- IC50 (CYP2D6): > 10 µM
- half-life at 1 μM [2]: 14 min
- stability of different kinds of liver microsomes (in words) [3]: significant advantages
- IC50 (CYP2C19): > 10 µM
- enzyme inhibitory activity (in words) (ERK1/2 kinase): extremely strong enzyme inhibitory activity
- IC50 (ERK1/2 kinase; numeric values, read-out: ERK½ IC50): < 0.001 µM
- IC50 (CYP1A2): > 10 µM
- IC50 (CYP3A4): > 10 µM
- half-life at 1 μM [4]: 14 min
- F ([5]; PO 5 mg/kg vs IV 1 mg/kg): 59%
- AUC(0-inf) [5, 6]: 0.368 µM·h
- AUC(0-t) [5, 6]: 0.365 µM·h
- MRT inf [5, 6]: 12 min
- clearance [5, 6]: 78 mL/min/kg
- half-life [5, 6]: 36 min
- Vd ([5]; male, Balb-c, mouse, plasma, IV, 1 mg/kg, read-out: Vss): 1 L/kg
- AUC(0-inf) [5, 7]: 1.09 µM·h
- AUC(0-t) [5, 7]: 1.08 µM·h
- Cmax [5, 7]: 1200 nM
- Tmax [5, 7]: 18 min
- half-life [5, 7]: 66 min
